Results reported in ChEMBL document CHEMBL1139346, “Discovery of innovative small molecule therapeutics” (2009).

Legend:
Rattus norvegicus [1] = assay: Neuroprotective effect in rat transient mCAO focal ischemia model assessed as reduction of infarct volume at 30 mg/kg relative to control; type: functional; design: scale not given: the % may be the effect or the level left
Rattus norvegicus [2] = assay: Neuroprotective effect in rat transient mCAO focal ischemia model assessed as reduction of infarct volume at 10 mg/kg relative to control; type: functional; design: scale not given: the % may be the effect or the level left

Structure (SMILES): CO[C@@H]1C/C(C)=C\[C@H]2CC[C@@H]([C@@H](C)C[C@@H](C)C(=O)[C@H](OC)[C@H](O)/C(C)=C/[C@@H](C)C(=O)C[C@@H]([C@H](C)C[C@@H]3CC[C@@H](O)[C@H](OC)C3)OC(=O)[C@@H]3CCCCN3C(=O)C(=O)[C@]3(O)O[C@@H](CC[C@H]3C)C1)N(c1ccccc1)O2 [ILS-920]
- Activity (Rattus norvegicus [1]): 36%
- Activity (Rattus norvegicus [2]): 23%
